Experimental data from patent US20190375778A1, “ADENOSINE DERIVATIVES FOR USE IN THE TREATMENT OF CANCER” (NuCana plc, priority 2016, published 2019).

Legend:
MOLT-4 = assay: CellTiterGlo viability assay, MOLT-4; assay type: cell-based; conditions: Homo sapiens, MOLT-4, 72 h, read-out: IC50 MOLT-4
Experimental: (§1) In vitro viability assay were performed to assess the effects of compounds on cell viability in selected cell lines over ˜72 hrs using the CellTiterGlo (CTG, Promega-G7573) assay. The tests were performed in duplicates with treatment of compounds at 9 points, 3.16 folds titration in 96 well plates over ˜72 hrs. The compound starting concentrations were 198 μM. Cell viability assay using CellTiterGlo in 96-well plate were performed. Compound treatment 72 hrs, standard growth conditions, duplicates. Compounds were dissolved to 40 mM with thawed […]. Compounds were serially diluted at 3.16 fold in thawed DMSO, and warmed to 37° C. before being dissolved in media (2 μl+200 μl). After compounds were dissolved in media, media containing compounds were warmed to 37° C. in incubator and then compounds in media were added to cell plates (50 μl+50 μl) in duplicates. The compounds' final concentrations were from […] to 19.9 nM. All compound solubilities were checked and recorded again, then the plates were transferred to CO2 tissue culture incubator immediately and incubated for 3 days. DMSO final concentration is 0.5%.

HEL92.1.7 = assay: CellTiterGlo viability assay, HEL92.1.7; assay type: cell-based; conditions: Homo sapiens, HEL 92.1.7, 72 h, read-out: IC50 HEL92.1.7
Summary of the method: (§2)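 CTG luminescence read-out after ~72 h compound exposure; 9 pts, 3.16-fold dilution, top final 198 μM, bottom 19.9 nM; duplicates; 0.5% DMSO final; 37 °C CO2 incubator.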

HT29 = assay: CellTiterGlo viability assay, HT29; assay type: cell-based; conditions: Homo sapiens, HT-29, 72 h, read-out: IC50 HT29
Experimental: as §1

HepG2 = assay: CellTiterGlo viability assay, HepG2; assay type: cell-based; conditions: Homo sapiens, HepG2, 72 h, read-out: IC50 HepG2
Experimental: as §1

[1] = tested on: human cervix carcinoma HeLa cells; assay: Cell proliferation (Coulter count) assay, HeLa; assay type: cell-based; conditions: 120 h, cell count on day 5, read-out: absolute IC50, HeLa
Summary of the method: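 Cells grown in DMEM with 10% FBS. HeLa seeded at 10 000 cells/well, compound added after 24 h, counted day 5; L1210 and CEM seeded at 60 000 cells/well with compound, counted after 48 h and 72 h respectively. IC50 is concentration halving proliferation by Coulter count.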

CCRFCEM = assay: CellTiterGlo viability assay, CCRFCEM; assay type: cell-based; conditions: Homo sapiens, CCRF-CEM, 72 h, read-out: IC50 CCRFCEM
Summary of the method: as §2

THP-1 = assay: CellTiterGlo viability assay, THP-1; assay type: cell-based; conditions: Homo sapiens, THP-1, 72 h, read-out: IC50 THP-1
Experimental: as §1

HL-60 = assay: CellTiterGlo viability assay, HL-60; assay type: cell-based; conditions: Homo sapiens, HL-60, 72 h, read-out: IC50 HL-60
Summary of the method: as §2

[2] = tested on: KG1a leukaemic stem cell compartment (Lin−/CD34+/CD38−/CD123+); assay: Leukaemic stem cell compartment in KG1a; assay type: cell-based; conditions: for KG-1a (CD34+/CD38−/CD123+) % compartment: LSC as percentage of viable cells left, 72 hrs
Experimental: A further comparative analysis of the toxicity of compounds in the KG1a cell line over an extended dose range was carried out, and the relative effect assessed of the compounds on the leukaemic stem cell compartment within the KG1a cell line, across the entire dose range. Thus, experimental tests were performed on certain compounds of the present invention to assess their ability to target cancer stem cells in a leukaemic cell line. The acute myeloid leukaemia (AML) cell line, KG1a, was employed to assess the relative effect of compounds on the stem cell compartment. The KG1a cell line was selected because it manifests a minor stem cell-like compartment with a distinct immunophenotype (Lin^−/CD34^+/CD38^−/CD123^+).
Cells of the KG1a cell line were maintained in RPMI medium (Invitrogen, Paisley, UK) supplemented with 100 units/ml penicillin, 100 μg/ml streptomycin and 20% foetal calf serum. Cells were subsequently aliquoted (10^5 cells/100 μl) into 96-well plates and were incubated at 37° C. in a humidified 5% carbon dioxide atmosphere for 72 hrs in the presence of nucleoside analogues and their respective nucleotide analogues (known as ProTides) at concentrations that were experimentally determined for each series of compounds. In addition, control cultures were carried out to which no drug was added. Cells were subsequently harvested by centrifugation and were analyzed by flow cytometry using the Annexin V assay.
KG1a cells were cultured for 72 hrs in the presence of a wide range of concentrations of each compound assayed. Cells were then harvested and labelled with a cocktail of anti-lineage antibodies (PE-cy7), anti-CD34 (FITC), anti-CD38 (PE) and anti-CD123 (PERCP cy5). The sub-population expressing a leukaemic stem cell (LSC) phenotype were subsequently identified and were expressed as a percentage of all viable cells left in the culture. The percentages of stem cells remaining were then plotted on a dose-response graph and the effects of the compounds were compared with 8-chloroadenosine.
The data obtained in these experiments were evaluated using one way ANOVA. All data was confirmed as Gaussian or a Gaussian approximation using the omnibus K2 test. LD50 values were calculated from the non-linear regression and line of best-fit analysis of the sigmoidal dose-response curves. All statistical analyses were performed using Graphpad Prism 6.0 software (Graphpad Software Inc., San Diego, Calif.).

BxPC-3 = assay: CellTiterGlo viability assay, BxPC-3; assay type: cell-based; conditions: Homo sapiens, BXPC-3, 72 h, read-out: IC50 BxPC-3
Experimental: as §1

RPMI-8226 = assay: CellTiterGlo viability assay, RPMI-8226; assay type: cell-based, Human; conditions: Homo sapiens, RPMI-8226, 72 h, read-out: IC50 RPMI-8226
Summary of the method: as §2

| SMILES | IC50 (MOLT-4) | IC50 (HEL92.1.7) | IC50 (HT29) | IC50 (HepG2) | IC50 [1] | IC50 (CCRFCEM) | IC50 (THP-1) | IC50 (HL-60) | KG-1a (CD34+/CD38−/CD123+) % compartment [2] | IC50 (BxPC-3) | IC50 (RPMI-8226) | targeting of leukaemic/cancer stem cells in words ([2]; KG1a, compared to 8-chloroadenosine (FIG. 2, FIG. 8)) |
| --- | --- | --- | --- | --- | --- | --- | --- | --- | --- | --- | --- | --- |
| CCCCCOC(=O)[C@H](C)NP(=O)(OC[C@H]1O[C@@H](n2c(Cl)nc3c(N)ncnc32)C(O)C1O)Oc1cccc2ccccc12 (stereo partly drawn) [Compound E, (2S)-Pentyl 2-(((((2R,3S,4R,5R)-5-(6-amino-8-chloro-9H-purin-9-yl)-3,4-dihydroxy-tetrahydrofuran-2-yl)methoxnaphthalene-1-yloxy)phosphoryl)amino)propanoate] | 100 to 5000 nM | 0.1 to 5 µM | 0.1 to 5 µM | 0.1 to 5 µM | 0.1 to 5 µM | 0.1 to 5 µM | 0.1 to 5 µM | 0.1 to 5 µM | 3.5% | 5 to 15 µM | 0.1 to 5 µM | – |
| CC(C)C[C@H](NP(=O)(OC[C@H]1O[C@@H](n2c(Cl)nc3c(N)ncnc32)C(O)C1O)Oc1ccccc1)C(=O)OCc1ccccc1 (stereo partly drawn) [V, 5′-([(Benzyloxy-L-leucin-N-yl)-phenyl]-phosphatyl) 8-chloroadenosine] | 100 to 5000 nM | 0.1 to 5 µM | 0.1 to 5 µM | 0.1 to 5 µM | 0.1 to 5 µM | 5 to 15 µM | 0.1 to 5 µM | 5 to 15 µM | – | 5 to 15 µM | 0.1 to 5 µM | – |
| C[C@H](NP(=O)(OC[C@H]1O[C@@H](n2c(Cl)nc3c(N)ncnc32)[C@H](O)[C@@H]1O)Oc1ccccc1)C(=O)OCc1ccccc1 (mixture of isomers) [C, (2S)-Benzyl 2-(((((2R,3S,4R,5R)-5-(6-amino-8-chloro-9H-purin-9-yl)-3,4-dihydroxy-tetrahydrofuran-2-yl)methoxy)(phenoxy)phosphoryl)amino)propanoate] | 100 to 5000 nM | 15 to 100 µM | 5 to 15 µM | 15 to 100 µM | 5 to 15 µM | 5 to 15 µM | 15 to 100 µM | 5 to 15 µM | 3.3% | 15 to 100 µM | 5 to 15 µM | – |
| Nc1ncnc2c1nc(Cl)n2[C@@H]1O[C@H](COP(=O)(NCC(=O)OCc2ccccc2)Oc2ccccc2)[C@@H](O)[C@H]1O (mixture of isomers) [Compound B, Benzyl 2-(((((2R,3S,4R,5R)-5-(6-amino-8-chloro-9H-purin-9-yl)-3,4-dihydroxytetra-hydrofuran-2-yl)methoxy)(phenoxy)phosphoryl)amino)acetate] | 100 to 5000 nM | 0.1 to 5 µM | 0.1 to 5 µM | 0.1 to 5 µM | 0.1 to 5 µM | 0.1 to 5 µM | 0.1 to 5 µM | 0.1 to 5 µM | 2.7% | 5 to 15 µM | 0.1 to 5 µM | particularly effective preferential targeting of LSCs |
